Reference: article PMC7274539, “The selective glucocorticoid receptor antagonist CORT125281 has tissue-specific activity” (The Journal of Endocrinology, 2020)
Where two headings read alike, the source gives them in different places.

Tests used:
[1] = tested on: GR transcriptional activity; test: Acute corticosterone exposure or basal conditions: RT-qPCR of GR target genes in tissues; type: in vivo, C57Bl/6J mice
Method: (§1) All studies involving animals were approved by the institutional ethics committee on animal care and experimentation at the Leiden University Medical Center. The 8-week old male C57Bl/6J mice (Charles River) were housed in ventilated cages with a 12 h light:12 h darkness regime and ad libitum access to food and water. In the acute corticosterone exposure experiments, mice received a synthetic chow diet (Research Diets, New Brunswick, NJ, USA) containing vehicle or CORT125281 (6, 20 or 60 mg/kg/day, Corcept Therapeutics, Menlo Park, CA, USA) for 6 days. […] Mice were treated daily with vehicle, 60 mg/kg mifepristone (Corcept Therapeutics) or 60 mg/kg CORT125281 (dissolved in PBS with 0.1% Tween 80 and 0.5% hydroxypropylmethylcellullose, Corcept Therapeutics) via oral gavage for 5 days, after which mice were killed by CO2 inhalation. Throughout the experiment, body weight was monitored and body composition was determined with EchoMRI™ (Frankfurt, Germany). After 5 days, blood was collected from the lateral tail vain in paraoxon-coated capillaries after a 6-h fast. Plasma triglyceride, total cholesterol, free fatty acid, glucose and insulin levels were determined using commercially available kits (Roche; Instruchemie, Delfzijl, Netherlands and Crystal Chem, Zaandam, Netherlands). Blood concentrations of the major leukocyte classes, that is, lymphocytes, monocytes and eosinophils, were determined in whole blood using an automatic veterinary hematology analysis (Sysmex XT-2000iV; Goffin Meyvis, Etten-Leur, the Netherlands).
(§2) In both acute and subchronic corticosterone experiments, relevant tissues (including quadriceps muscle, interscapular BAT, gonadal white adipose tissue (WAT), adrenals, spleen, thymus, pituitary and hippocampus) were collected to determine tissue weight and/or for further molecular analysis.
(§3) Total RNA was isolated from snap-frozen tissues using TriPure isolation reagent (Roche). After reverse transcription to cDNA (Promega), RT-qPCR was performed using IQ SYBR-Green supermix and MyIQ thermal cycler (Bio-RAD CFX96). Primers were tested for high efficiency (90–110%) and for amplification of a single PCR product. All primer sequences are listed in Supplementary Table 1 (see section on supplementary materials given at the end of this article), with the exception of Ncor1 and Ncor2 which were purchased from Qiagen. Fold change expression was calculated using the 2^−ΔΔ^CT method.

[2] = Quantification of serum and tissue CORT125281 concentration by LC-MS; type: in vivo, C57Bl/6J mice; settings: male, C57Bl/6J, mouse, oral, 60 mg/kg/day for 6 days, mice
Method: as §1
Compound levels were assessed against standard curves for CORT125281, ranging from 0.05–20 µM in each tissue. Tissues were weighed and water was added at three-fold the weight of each individual sample before homogenising. Internal standard (90 µL of 1 µM leucine enkephalin in acetonitrile) was added to all samples, standard curves and quality control spikes of CORT125281. After centrifugation, a fixed volume of supernatant was removed and pellets were dissolved in water. The samples were then analysed by LC-MS utilising a QTRAP 5500 mass spectrometer (Sciex, Warrington, UK), UPLC (Agilent) instrument, equipped with a C18 Cortecs UPLC analytical column (2.1 × 30 mm, […]). […] The gradient started with a mobile phase composition of 5% B which was held for 0.1 min. The percentage of B was then linearly ramped to 95% over 0.1 to 1.2 min and then held constant up to 1.3 min. […] The mass spectrometer was set to operate in negative ion mode. The ion source temperature was 650°C, the ion spray voltage was −4000 V, gases 1, 2 and curtain gas were 30 V, 60 V and 35 V, respectively, and the entrance and collisition exit potential were −10 V and −13 V. The collision energy and declustering potential used for the multiple reaction monitoring (MRM) transitions of CORT125281 were −28 V and −60 V, the Q1 and Q3 masses were 588.649 Da and 248.800 Da, while the collision energy and declustering potential for the internal standard were −40 V and 0 V and the Q1 and Q3 masses 554.2 Da and 235.9 Da.

male C57Bl/6J mice [3] = test: Body weight, food intake and immune cell counts under CORT125281 via the diet; type: in vivo; settings: for body weight / food intake: 6 days
Method: as §1

[4] = tested on: GR transcriptional activity; test: Subchronic corticosterone exposure: RT-qPCR of GR and insulin target genes in tissues; type: in vivo, C57Bl/6J mice; settings: corticosterone pellet 5 days, 60 mg/kg/day oral gavage
Method: as §1, §2, §3

male C57Bl/6J mice [5] = test: Subchronic corticosterone exposure (pellet): body composition, organ weights, leukocytes, plasma insulin, glucose, lipids; type: in vivo; settings: corticosterone pellet 5 days, 60 mg/kg/day oral gavage
Method: as §1, §2

[6] = 60 mg/kg/day, corticosterone 1.5 mg/kg, liver
[7] = 60 mg/kg/day, without corticosterone exposure

Cn1ncc(S(=O)(=O)N2CC[C@H]3Cc4c(cnn4-c4ccc(F)cc4)C[C@]3(C(=O)c3cc(C(F)(F)F)ccn3)C2)n1 [CORT125281]
corticosterone-induced mRNA of GR target genes in liver ([1]; 60 mg/kg/day via food 6 days, corticosterone 1.5 mg/kg s.c. 1 h before killing, liver): complete blockade
corticosterone-induced GR target genes in BAT ([1]; 60 mg/kg/day via food 6 days, corticosterone 1.5 mg/kg, BAT): inhibition of only a subset of corticosterone-induced genes
corticosterone-induced GR target genes in WAT ([1]; 60 mg/kg/day via food 6 days, corticosterone 1.5 mg/kg, WAT): no effects
corticosterone-induced GR target genes in hippocampus ([1]; 60 mg/kg/day via food 6 days, corticosterone 1.5 mg/kg, hippocampus): no effects
corticosterone-induced GR target genes in muscle ([1]; 60 mg/kg/day via food 6 days, corticosterone 1.5 mg/kg, quadriceps muscle): inhibition of only a subset of corticosterone-induced genes
corticosterone induction of G6pc in liver [1, 6]: a similar pattern was observed
corticosterone induction of Pepck in liver [1, 6]: blocked the induction
corticosterone induction of Murf1 in muscle ([1]; 60 mg/kg/day, corticosterone 1.5 mg/kg, muscle): completely blocked
mRNA levels of Gilz and G6p in liver ([1]; 60 mg/kg/day, intact animals without prior corticosterone exposure): inhibited mRNA levels
Cd36 expression in BAT [1, 7]: upregulated
GR target gene expression in WAT [1, 7]: did not affect
GR target gene expression in muscle [1, 7]: did not affect
expression of Sgk1 and Mt2a in hippocampus ([1]; 60 mg/kg/day, without corticosterone exposure, to a very modest extent): downregulated
antagonistic actions on corticosterone-induced genes in BAT ([1]; 6-20 mg/kg/day doses, BAT): completely lost
Mt2a expression in liver of solvent-injected mice ([1]; 6 and 20 mg/kg/day, solvent injection): inhibited
corticosterone-induced GR transcriptional activity of Fkbp5, Gilz, Sgk1 and Mt2a in liver ([1]; lower doses 6 and 20 mg/kg/day, 6 days, corticosterone 1 h before tissue collection): partially inhibited
GR transcriptional activity in WAT ([1]; lower doses 6 and 20 mg/kg/day, WAT): did not inhibit
dose required to attenuate corticosterone-induced expression of Fkbp5 and Gilz in liver ([1]; via food 6 days, liver): 20 mg/kg/day
dose sufficient to attenuate corticosterone-induced expression of Sgk1 and Mt2a in liver ([1]; via food 6 days, liver): 6 mg/kg/day
Kp at 6 days ([2]; BAT (brown adipose tissue) relative to plasma, read-out: tissue to plasma ratio, BAT): 19.1
concentration at 6 days ([2]; BAT (brown adipose tissue), BAT, read-out: CORT125281 level, BAT): 4720 ng/g
Kp at 6 days ([2]; WAT (white adipose tissue) relative to plasma, read-out: tissue to plasma ratio, WAT): 46.7
Kp at 6 days ([2]; brain (neocortex) relative to plasma, neocortex, read-out: tissue to plasma ratio, brain): 1.8
concentration at 6 days ([2]; gonadal WAT (white adipose tissue), gonadal WAT, read-out: CORT125281 level, WAT): 12500 ng/g
Kp at 6 days ([2]; liver relative to plasma, read-out: tissue to plasma ratio, liver): 8
concentration at 6 days ([2]; brain neocortex, read-out: CORT125281 level, brain): 542 ng/g
concentration at 6 days ([2]; liver, read-out: CORT125281 level, liver): 2040 ng/g
concentration at 6 days ([2]; plasma, read-out: CORT125281 level, plasma): 419 ng/g
immune counts (WBC, lymphocytes, monocytes, eosinophils) (male C57Bl/6J mice [3]; 60 mg/kg/day via diet 6 days, without excess corticosterone exposure): did not alter
body weight (male C57Bl/6J mice [3]; 60 mg/kg/day via food): did not alter
food intake (male C57Bl/6J mice [3]; 60 mg/kg/day via food): did not alter
body weight (male C57Bl/6J mice [3]; 6 and 20 mg/kg/day via food): did not alter
food intake (male C57Bl/6J mice [3]; 6 and 20 mg/kg/day via food): did not alter
expression of insulin target genes G6p and Pepck in liver, Glut4 and Lpl in WAT, Glut4 and Gsk3b in muscle [4]: did not affect
corticosterone-induced expression of GR target genes (Fkbp5, Gilz, Sgk1, Mt2a) ([4]; liver, muscle, BAT, WAT, hippocampus): did not prevent
HOMA-IR (male C57Bl/6J mice [5]): improved
corticosterone-induced alteration in body weight (BW) gain (male C57Bl/6J mice [5]): did not prevent
corticosterone-induced hyperlipidaemia (plasma triglycerides, total cholesterol) (male C57Bl/6J mice [5]): seemed to modestly reduce
free fatty acid levels (male C57Bl/6J mice [5]): did not affect
glucose levels (male C57Bl/6J mice [5]): improved
lean mass (reduced by corticosterone) (male C57Bl/6J mice [5]): not altered
thymus weight (male C57Bl/6J mice [5]): did not prevent
corticosterone-induced hyperinsulinemia (male C57Bl/6J mice [5]; 6-h fast): partially prevented
